How the values were obtained:
[1] = test system: glucose-6-phosphatase translocase mRNA; experiment: Target mRNA reduction in liver of db/db mice (Example 10); type: in vivo, mouse; conditions: 25 mg/kg s.c. twice weekly, end of study
Protocol: Seven-week old male C57B1/6J-Lepr db/db mice (Jackson Laboratory, Bar Harbor, Me.) were fed a diet with a fat content of about 14% and were subcutaneously injected with one or more of the oligomeric compounds of the invention or a control compound at a dose of 25 mg/kg two times per week. Glucose-6-phosphatase translocase antisense oligonucleotides used were ISIS 148985 (SEQ ID NO: 118) and ISIS 149008 (SEQ ID NO: 141). ISIS 116847 (SEQ ID NO: 143), targeted to mouse PTEN, was used as a positive control. The scrambled control oligonucleotide ISIS 141923 ([…], incorporated herein as SEQ ID NO: 144) served as a negative control along with saline-injected animals. ISIS 141923 and ISIS 116847 are chimeric oligonucleotides (“gapmers”) 20 nucleotides in length, composed of a central “gap” region consisting of 10 2′-deoxynucleotides, which is flanked on both sides (5′ and 3′) by five-nucleotide “wings”. The wings are composed of 2′-O-(2-methoxyethyl) nucleotides, also known as 2′-MOE nucleotides. The internucleoside (backbone) linkages are phosphorothioate throughout the oligonucleotide. All cytidine residues are 5-methylcytidines.
48 hours after the final treatment, mice were sacrificed and target levels were evaluated in liver. RNA isolation and target mRNA expression level quantitation were performed as described by other examples herein.
Glucose-6-phosphatase translocase mRNA levels in db/db mouse livers were measured at the end of study using RIBOGREEN™ RNA quantification reagent (Molecular Probes, Inc. Eugene, Oreg.) as taught in previous examples above. Unless otherwise noted, data are expressed as the average percent inhibition from 5 animals per treatment group.

[2] = Plasma neutrophils and lymphocytes in db/db mice (Table 9); type: in vivo, mouse
Protocol: (§1) Seven-week old male C57B1/6J-Lepr db/db mice (Jackson Laboratory, Bar Harbor, Me.) were fed a diet with a fat content of about 14% (Formulab Diet 5008) and were subcutaneously injected with ISIS 116847 (SEQ ID NO: 143), ISIS 141923 (SEQ ID NO: 144), or ISIS 148985 (SEQ ID NO: 118), an antisense inhibitor of glucose-6-phosphatase translocase, […] […] Saline-injected animals served as controls. 48 hours after the eighth and final dose was administered, mice were sacrificed and target levels were evaluated in liver. RNA isolation and target mRNA expression level quantitation were performed as described by other examples herein.
Because mutations in the glucose-6-phosphatase translocase gene responsible for human glycogen storage disease type 1b result in neutropenia, plasma neutrophils and lymphocytes were measured for animals in each treatment group.

[3] = test system: db/db mice; experiment: Fed plasma glucose in db/db mice, dose-response study (Example 11); type: in vivo, mouse
Protocol: as §1
For seven animals per treatment group, plasma glucose was measured with routine clinical analyzer instruments (e.g. Olympus Clinical Analyzer). Data are expressed as averages per treatment group.

[4] = mouse, in vivo, sc, 25 mg/kg
Protocol: Seven-week old male C57B1/6J-Lep ob/ob mice (Jackson Laboratory, Bar Harbor, Me.) were fed a diet with a fat content of about 22% and were subcutaneously injected with oligonucleotides at a dose of 25 mg/kg two times per week. A total of eight doses were administered. Glucose-6-phosphatase translocase antisense oligonucleotides used were ISIS 148985 (SEQ ID NO: 118) and ISIS 149008 (SEQ ID NO: 141). ISIS 116847 ([…]; incorporated herein as SEQ ID NO: 143), targeted to mouse PTEN, was used as a positive control. Saline-injected animals served as negative controls. Animals were sacrificed 48 hours after the last dose of oligonucleotide was administered, and liver triglycerides, liver glycogen, and target reduction in liver were measured.
Hepatic steatosis, or buildup of lipids in the liver, was assessed by measuring the liver triglyceride content. Tissue triglycerides were measured with a Triglyceride GPO assay from Roche Diagnostics (Indianapolis, Ind.). Data are presented as averages from 5 animals per treatment group. Triglycerides were approximately 178 mg/g for saline treated mice, 162 mg/g for ISIS 149008-treated mice, 168 mg/g for ISIS 148985-treated mice, and 187 mg/g for ISIS 116847 (PTEN)-treated mice. Thus liver triglycerides were not increased in antisense-treated animals.
Tissue glycogen was measured using the Glucose Trinder Reagent (Sigma-Aldrich, St. Louis, Mo.). Glycogen levels of mice treated with saline alone were approximately 31 mg/g of tissue. Levels in mice treated with the positive control antisense compound ISIS 116847, targeted to PTEN, had levels of approximately 25 mg/g. Mice treated with ISIS 149008 or 148985, the antisense inhibitors of glucose-6-phosphatase translocase, had glycogen levels of approximately 31 mg/g and 30 mg/g, respectively.

[5] = test system: glucose-6-phosphatase translocase mRNA; experiment: Target mRNA reduction in liver of ob/ob mice; type: in vivo, mouse; conditions: 25 mg/kg s.c. twice weekly, eight doses
Protocol: Seven-week old male C57B1/6J-Lep ob/ob mice (Jackson Laboratory, Bar Harbor, Me.) were fed a diet with a fat content of about 22% and were subcutaneously injected with oligonucleotides at a dose of 25 mg/kg two times per week. A total of eight doses were administered. Glucose-6-phosphatase translocase antisense oligonucleotides used were ISIS 148985 (SEQ ID NO: 118) and ISIS 149008 (SEQ ID NO: 141). […]; incorporated herein as SEQ ID NO: 143), targeted to mouse PTEN, was used as a positive control. Saline-injected animals served as negative controls. […] Glucose-6-phosphatase translocase mRNA levels in ob/ob mouse livers were measured at the end of the study using RIBOGREENTM RNA quantification reagent (Molecular Probes, Inc. Eugene, Oreg.) as taught in previous examples above.

[6] = 25 mg/kg twice weekly 4 weeks (25 mg/mL [sic]), saline 0.9
[7] = 25 mg/kg twice weekly 4 weeks (25 mg/mL [sic]), saline 2.7
[8] = 25 mg/kg twice weekly, week 0, saline 280
[9] = 25 mg/kg twice weekly, week 2, saline 517
[10] = 25 mg/kg twice weekly, week 4, saline 510

| Sequence | Glucose-6-phosphatase translocase mRNA levels in liver, reduction compared to saline [1] | Neutrophils Plasma [2, 6] [cells/nL] | Lymphocytes Plasma [2, 7] [cells/nL] | fed plasma glucose [3, 8] | fed plasma glucose [3, 9] [mg/dL] | fed plasma glucose [3, 10] [mg/dL] | Liver Triglycerides [4] [mg/g] | Liver glycogen levels [4] | Glucose-6-phosphatase translocase mRNA levels in liver, reduction compared to saline [5] | Lymphocytes Plasma ([2]; dose 12.5 mg/mL [sic]) [cells/nL] | Neutrophils Plasma ([2]; dose 12.5 mg/mL [sic]) [cells/nL] | Lymphocytes Plasma ([2]; dose printed 6 mg/mL) [cells/nL] | Neutrophils Plasma ([2]; dose printed 6 mg/mL) [cells/nL] | fed plasma glucose ([3]; 6.25 mg/kg twice weekly, week 0) | fed plasma glucose ([3]; 6.25 mg/kg twice weekly, week 2) [mg/dL] | fed plasma glucose ([3]; 6.25 mg/kg twice weekly, week 4) [mg/dL] | fed plasma glucose ([3]; 12.5 mg/kg twice weekly, week 0) | fed plasma glucose ([3]; 12.5 mg/kg twice weekly, week 2) [mg/dL] | fed plasma glucose ([3]; 12.5 mg/kg twice weekly, week 4) [mg/dL] |
| --- | --- | --- | --- | --- | --- | --- | --- | --- | --- | --- | --- | --- | --- | --- | --- | --- | --- | --- | --- |
| CCTTCCCTGAAGGTTCCTCC (chemistry not given here) [ISIS 141923, scrambled control oligonucleotide, negative control, reference compound] | about 4% | 0.9 | 2.6 | approximately 287 mg/dL | ~456 | ~510 | – | – | – | – | – | – | – | – | – | – | – | – | – |
| CTGCTAGCCTCTGGATTTGA (chemistry not given here) [ISIS 116847, positive control oligonucleotide targeted to mouse PTEN, reference compound] | about 8% | 0.8 | 3.1 | approximately 282 mg/dL | ~291 | ~224 | ~187 | approximately 25 mg/g | approximately 36% | – | – | – | – | – | – | – | – | – | – |
| GCTCCATAGCGAGGACTCGA (chemistry not given here) [ISIS 148985] | approximately 19% | 1.0 | 3.3 | approximately 289 mg/dL | ~394 | ~443 | ~168 | ~30 mg/g | approximately 52% | – | – | – | – | – | – | – | – | – | – |
| TATACAAGTCGGTTTGCCCT (chemistry not given here) [ISIS 149008] | approximately 82% | 1.0 | 3.7 | approximately 286 mg/dL | ~359 | ~299 | ~162 | approximately 31 mg/g | approximately 87% | 3.2 | 0.9 | 2.8 | 1.1 | approximately 289 mg/dL | ~397 | ~478 | approximately 283 mg/dL | ~411 | ~203 |

From patent publication US8258114B2, “Modulation of glucose-6-phosphatase translocase expression” (Isis Pharmaceuticals, Inc., priority 2004, dated 2012)
